Measurements from patent publication US20090163561A1, “AMORPHOUS METAXALONE AND AMORPHOUS DISPERSIONS THEREOF” (URL Pharma, Inc., priority 2007, published 2009).
Read-outs that look alike come from different tables or passages of the source.

Tests used:
[1] = pH ˜1.5; cited from earlier work
[2] = Moisture balance (moisture sorption-desorption analysis); format: physicochemical; settings: for post-MB XRPD form: after moisture balance
Excerpt: FIG. 6. Moisture sorption-desorption analysis of metaxalone Form A. FIG. 10. Moisture sorption-desorption analysis of metaxalone Form B.

[3] = Storage stability of solid amorphous metaxalone; format: physicochemical
Procedure: A glass vial containing metaxalone Form A was placed in a silicon oil bath at 155° C. Once the solids had melted, the vial was quickly cooled in a dry ice/acetone bath (about −78° C.). Glassy solids resulted.

Compound: Cc1cc(C)cc(OCC2CNC(=O)O2)c1 (stereo not shown) [Crystalline metaxalone, 5-(3′,5′-dimethylphenoxy)methyl-2-oxazolidinone]
- solubility at low pH [1]: insoluble

Compound: Cc1cc(C)cc(OCC2CNC(=O)O2)c1 (stereo not shown) [Metaxalone Form A, 5-(3′,5′-dimethylphenoxy)methyl-2-oxazolidinone]
- MB (moisture balance) result [2]: nonhygroscopic solid
- post-MB XRPD form [2]: Form A

Compound: Cc1cc(C)cc(OCC2CNC(=O)O2)c1 (stereo not shown) [Metaxalone Form B, 5-(3′,5′-dimethylphenoxy)methyl-2-oxazolidinone]
- MB (moisture balance) result [2]: non-hygroscopic
- post-MB XRPD form [2]: Form B

Compound: Cc1cc(C)cc(OCC2CNC(=O)O2)c1 (stereo not shown) [Solid Amorphous Metaxalone, 5-(3′,5′-dimethylphenoxy)methyl-2-oxazolidinone]
- stability against conversion to a crystalline form when stored [3]: produce crystalline material
- stability against conversion to a crystalline form when stored ([3]; listed as solid amorphous metaxalone): not stable
